According to article PMC3974779, “Pterostilbene-Isothiocyanate Conjugate Suppresses Growth of Prostate Cancer Cells Irrespective of Androgen Receptor Status” (PLoS ONE, 2014):

How the values were obtained:
[1] = molecular target: T1, androgen receptor in LNCaP cells (Homo sapiens, UniProt P10275, T878A); experiment: AR transactivation luciferase assay with/without exogenous SRC-1 and GRIP-1; type: cell-based; details: 10 μM with DHT
T1 construct: LNCaP cells, that express endogenous AR; endogenous in cells; host or cells: LNCaP
T1 sequence (P10275 1-920 T878A): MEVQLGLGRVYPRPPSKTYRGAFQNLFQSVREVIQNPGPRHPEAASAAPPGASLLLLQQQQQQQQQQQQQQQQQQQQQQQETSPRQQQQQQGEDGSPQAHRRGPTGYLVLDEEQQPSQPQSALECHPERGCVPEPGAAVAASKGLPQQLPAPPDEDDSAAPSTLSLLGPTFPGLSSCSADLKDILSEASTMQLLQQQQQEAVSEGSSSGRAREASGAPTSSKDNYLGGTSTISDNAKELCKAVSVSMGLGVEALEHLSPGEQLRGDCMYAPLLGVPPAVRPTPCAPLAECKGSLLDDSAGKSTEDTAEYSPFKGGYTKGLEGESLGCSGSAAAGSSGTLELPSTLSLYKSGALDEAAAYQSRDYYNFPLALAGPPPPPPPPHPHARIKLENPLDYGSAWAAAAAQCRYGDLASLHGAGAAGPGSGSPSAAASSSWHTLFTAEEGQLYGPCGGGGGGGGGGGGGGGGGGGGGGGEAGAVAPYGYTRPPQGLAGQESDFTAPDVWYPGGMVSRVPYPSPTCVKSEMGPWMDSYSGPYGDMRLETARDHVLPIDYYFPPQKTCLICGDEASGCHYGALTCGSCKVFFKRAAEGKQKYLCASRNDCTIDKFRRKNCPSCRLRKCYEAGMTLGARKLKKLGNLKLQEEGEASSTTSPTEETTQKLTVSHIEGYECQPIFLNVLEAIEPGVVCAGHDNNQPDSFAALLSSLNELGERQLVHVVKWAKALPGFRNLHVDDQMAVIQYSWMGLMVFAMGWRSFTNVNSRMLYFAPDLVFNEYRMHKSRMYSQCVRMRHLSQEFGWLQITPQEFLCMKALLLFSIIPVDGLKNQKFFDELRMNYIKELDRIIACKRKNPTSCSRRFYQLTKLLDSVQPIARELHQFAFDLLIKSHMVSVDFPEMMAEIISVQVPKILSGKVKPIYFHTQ
Method: The LNCaP cells were grown and transiently transfected with pMMTV-neomycin-luciferase plasmid (300 ng/10^5 cells) in RPMI media supplemented with 10% FBS using polyfect transfection reagent (Qiagen, CA, USA) according to manufacturer’s instructions. […] In case of PC-3 cells, they were similarly transfected, but in addition to pMMTV-neomycin-luciferase construct, they were also transfected with pSG5-hAR-puro plasmid (full length hAR in pSG5 expression vector) in the ratio of 5∶1 as indicated above. For experiments involving co-regulators, 50 ng of co-activator plasmids (25 ng each of GRIP-1 and SRC-1) along with pMMTV-neo-luc (250 ng) were transfected to LNCaP cells. To evaluate the transfection efficiency, 500 ng/105 cells of the SV40 promoter-Renilla luciferase (pRL-SV40) vector (Promega Madison, USA) were co-transfected as internal control. […] The values of luciferase for each lysates were normalized to the Renilla luciferase activity.

[2] = system: caspase-3 expression in LNCaP cells; experiment: Immunoblot analysis of apoptotic markers; type: cell-based, human; details: highest dose (40 μM), immunoblot densitometry
Method: (§1) The whole-cell lysates were prepared as described previously in immunoprecipitation (IP) buffer containing 50 mM Tris-HCl (pH 8.0), 150 mM NaCl, 5 mM EDTA, and 1% Triton X-100. Protein aliquots of 500 μg were then incubated overnight at 4°C using 2 μg of antibody directed against AR. The Protein A-Cl Agarose beads were then added and further incubated for 6 h at 4°C. The immunoprecipitates were washed four times with the IP buffer and the immunocomplexes were recovered by boiling in SDS sample buffer. Finally the western blot was carried out using anti-AR, anti-SRC-1 and anti-GRIP-1 antibodies (Santa Cruz, CA, USA). For western blot analysis, the cell lysates were prepared after harvesting them in lysis buffer. About 40 μg of total protein was electrophoresed by 12% SDS-PAGE, and the western blotting was carried out using standard protocol. In brief, the analyzed proteins were transferred to nylon membranes. The blots were then blocked with TBST buffer (20 mM Tris-Cl, pH 7.5, 150 mM sodium chloride, 0.05% Tween-20) containing 5% skim milk powder. They were then washed with TBST buffer and incubated overnight at 4°C with the same buffer containing appropriate amounts of primary antibodies: caspase-3, Bax, Bcl-2, Akt, p-Akt, ERK, p-ERK, AR, SRC-1, GRIP-1 (1∶500) and β-actin (1∶1000). The blots were then washed and incubated with anti-rabbit secondary antibody (1∶20,000) conjugated with horseradish peroxidase (HRP). Color development was performed in the dark by using an ECL kit (Amersham, GE Healthcare, Buckinghamshire, UK). The developed blots were subjected to densitometric analysis by ImageJ 1.43 software (NIH, USA) using β-actin as internal control.

[3] = system: caspase-3 expression in PC-3 cells; experiment: Immunoblot analysis of apoptotic markers; type: cell-based, human; details: PC-3, highest dose (40 μM), immunoblot densitometry
Method: as §1

[4] = system: PC-3 cells; experiment: Cell cycle distribution by flow cytometry; type: cell-based, human; details: PC-3, 40 μM, 24 h (control 22%)
Method: (§2) Cell cycle distribution and Annexin V/Propidium iodide (PI) positive cells were analyzed using flow cytometry. In brief, first the cells were seeded and treated with 0, 10, 20 and 40 μM conjugate in complete medium for 24 h. This was followed by trypsinizing and fixing in 70% ethanol, and finally washing with PBS. Subsequently, the cells were treated with RNase A (50 μg/ml), stained with PI (50 μg/ml) and incubated in the dark for 30 min at room temperature and analyzed by flow cytometry for cell cycle distribution. For apoptosis, the conjugate treated cells were stained with Alexa-Fluor 488-conjugated Annexin-V using the Vybrant-Apoptosis Assay Kit from Invitrogen (USA) as per the manufacturer’s protocol. The stained cells were then analyzed by fluorescence activated cell sorting (FACS Calibur, BD Biosciences, San Jose, CA, USA) and the data were standardized using Cell Quest 3.3 software.

[5] = system: LNCaP cells; experiment: Cell cycle distribution by flow cytometry; type: cell-based, human
Method: as §2

AR transactivation (DHT alone = 100%) ([1]; with exogenous SRC-1 and GRIP-1): 102%
AR transactivation (DHT alone = 100%) ([1]; without exogenous co-activators): 64%
SMILES: COc1cc(/C=C/c2ccc(O)c(/C=N/NC(N)=S)c2)cc(OC)c1 [conjugate, Pterostilbene-isothiocyanate conjugate]
enhancement of caspase-3 expression [2]: about 8.5 folds
enhancement of caspase-3 expression [3]: ~6 folds
cells arrested in G2/M phase [4]: approximately 50%
accumulation of cells in G2/M phase ([5]; increasing doses of conjugate, 24 h): 16–35%
cells in G2/M phase ([5]; treated cells, 24 h (control 11%)): 35%
